Measurements: patent publication US7544694B2, “Substituted diaza-spiro-[5.5]-undecane derivatives and their use as neurokinin antagonists” (Janssen Pharmaceutica N.V., priority 2004, dated 2009)

Key:
Format in all cases: cell-based
NK3 = molecular target: T1, NK3 (Homo sapiens, UniProt P29371); test: Signal transduction (ST), intracellular Ca++ (FLIPR), NK3; conditions: antagonist, read-out: NK3 pIC50 (converted)
T1 sequence (P29371 1-465): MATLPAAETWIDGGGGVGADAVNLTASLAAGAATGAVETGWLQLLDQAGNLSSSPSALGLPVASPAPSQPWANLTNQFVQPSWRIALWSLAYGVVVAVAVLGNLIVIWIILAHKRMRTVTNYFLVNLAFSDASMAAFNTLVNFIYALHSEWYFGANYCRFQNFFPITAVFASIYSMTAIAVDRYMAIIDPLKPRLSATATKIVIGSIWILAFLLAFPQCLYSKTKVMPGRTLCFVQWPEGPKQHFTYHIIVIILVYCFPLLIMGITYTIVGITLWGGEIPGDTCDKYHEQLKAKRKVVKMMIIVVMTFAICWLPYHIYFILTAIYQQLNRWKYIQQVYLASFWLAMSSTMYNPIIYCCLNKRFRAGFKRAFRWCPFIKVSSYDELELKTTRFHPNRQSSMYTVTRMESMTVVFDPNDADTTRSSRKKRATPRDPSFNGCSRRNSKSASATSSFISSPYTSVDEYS
Method: [The source words this procedure for another target and reports this target under the same test.] (§1) This test evaluates in vitro functional NK1 antagonistic activity. For the measurements of intracellular Ca^++ concentrations the cells were grown on 96-well (black wall/transparent bottom) plates from Costar for 2 days until they reached confluence. The cells were loaded with 2 μM Fluo3 in DMEM containing 0.1% BSA and 2.5 mM probenecid for 1 h at 37° C. They were washed 3× with a Krebs buffer (140 mM NaCl, 1 mM MgCl2×6H2O, 5 mM KCl, 10 mM glucose, 5 mM HEPES; 1.25 mM CaCl2; pH 7.4) containing 2.5 mM probenecid and 0.1% BSA (Ca^++-buffer). The cells were preincubated with a concentration range of antagonists for 20 min at RT and Ca^++-signals after addition of the agonists were measured in a Fluorescence Image Plate Reader (FLIPR from Molecular Devices, Crawley, England). The peak of the Ca^++-transient was considered as the relevant signal and the mean values of corresponding wells were analysed as described below.
(§2) The sigmoidal dose response curves were analysed by computerised curve-fitting, using the GraphPad Program. The EC50-value of a compound is the effective dose showing 50% of maximal effect. For mean curves the response to the agonist with the highest potency was normalised to 100%. For antagonist responses the IC50-value was calculated using non-linear regression.
(§3) The last columns indicate—without being limited thereto—for which action the compounds might be most suitable. Of course, since for some neurokinin receptors no data was determined, it is obvious that these compounds might be attributed to another suitable use.

NK2 = molecular target: T2, NK2 (Homo sapiens, UniProt P21452); test: Signal transduction (ST), intracellular Ca++ (FLIPR), NK2; conditions: antagonist, read-out: NK2 pIC50 (converted)
T2 sequence (P21452 1-398): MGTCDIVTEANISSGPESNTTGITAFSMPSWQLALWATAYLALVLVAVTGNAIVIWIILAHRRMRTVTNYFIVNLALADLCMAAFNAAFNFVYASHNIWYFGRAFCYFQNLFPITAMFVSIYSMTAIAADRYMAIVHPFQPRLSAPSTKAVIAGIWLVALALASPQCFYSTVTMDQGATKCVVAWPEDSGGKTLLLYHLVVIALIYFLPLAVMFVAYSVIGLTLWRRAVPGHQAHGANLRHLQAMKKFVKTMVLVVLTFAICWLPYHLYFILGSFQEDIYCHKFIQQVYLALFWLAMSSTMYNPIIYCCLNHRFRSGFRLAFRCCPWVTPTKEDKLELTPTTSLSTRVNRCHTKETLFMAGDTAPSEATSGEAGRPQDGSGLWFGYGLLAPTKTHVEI
Method: [The source words this procedure for another target and reports this target under the same test.] as §1, §2, §3

NK1 = NK1 (Homo sapiens, UniProt P25103); test: Signal transduction (ST), intracellular Ca++ (FLIPR), functional NK1 antagonistic activity; conditions: antagonist, read-out: NK1 pIC50 (converted)
Method: as §1, §2, §3

NK1, sequence (P25103 whole entry): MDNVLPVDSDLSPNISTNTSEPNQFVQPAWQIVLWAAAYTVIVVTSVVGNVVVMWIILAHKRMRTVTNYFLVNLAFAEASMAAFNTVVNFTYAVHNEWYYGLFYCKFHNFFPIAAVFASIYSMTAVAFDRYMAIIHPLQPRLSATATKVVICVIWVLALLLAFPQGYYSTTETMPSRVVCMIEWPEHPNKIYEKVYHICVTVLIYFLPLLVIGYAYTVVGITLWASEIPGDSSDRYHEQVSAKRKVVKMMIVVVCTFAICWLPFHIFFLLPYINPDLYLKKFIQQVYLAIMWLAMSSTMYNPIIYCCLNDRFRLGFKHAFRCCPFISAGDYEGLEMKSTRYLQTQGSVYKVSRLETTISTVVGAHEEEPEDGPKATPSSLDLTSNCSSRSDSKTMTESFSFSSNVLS

## O=C(C1CCOC1)N1CCCC2(CCCN(C3CCN(C(=O)c4cc(C(F)(F)F)cc(C(F)(F)F)c4)C(Cc4ccccc4)C3)C2)C1 (single isomer, unassigned) [Compound 210]
NK3
  IC50: 1.78 µM
NK2
  IC50: 1.82 µM
NK1
  IC50: 0.288 µM

## O=C(C1CCOC1)N1CCCC2(CCCN(C3CCN(C(=O)c4cc(C(F)(F)F)cc(C(F)(F)F)c4)C(Cc4ccccc4)C3)C2)C1 (single isomer, unassigned) [Compound 211]
NK3
  IC50: ~10 µM
NK2
  IC50: 4.57 µM
NK1
  IC50: 0.282 µM

## O=C1CCC(C(=O)N2CCC3(CC2)CCN(C2CCN(C(=O)c4cc(C(F)(F)F)cc(C(F)(F)F)c4)C(Cc4ccccc4)C2)CC3)N1 (stereo not shown) [Compound 4]
NK3
  IC50: 1.29 µM
NK2
  IC50: 1.55 µM
NK1
  IC50: 0.0389 µM

## O=C(c1cc(C(F)(F)F)cc(C(F)(F)F)c1)N1CCC(N2CCC3(CC2)CCN(C(CO)c2cccs2)CC3)CC1Cc1ccccc1 (stereo not shown) [Compound 6]
NK3
  IC50: > 10 µM
NK2
  IC50: 7.76 µM
NK1
  IC50: 0.129 µM

## CC(C)(C)C(=O)N1CCC2(CC1)CCN([C@H]1CCN(C(=O)c3cc(C(F)(F)F)cc(C(F)(F)F)c3)[C@H](Cc3ccccc3)C1)CC2 [Compound 7]
NK3
  IC50: > 10 µM
NK2
  IC50: > 10 µM
NK1
  IC50: 0.115 µM

## CC(C)(C)C(=O)N1CCC2(CC1)CCN([C@@H]1CCN(C(=O)c3cc(C(F)(F)F)cc(C(F)(F)F)c3)[C@H](Cc3ccccc3)C1)CC2 [Compound 8]
NK3
  IC50: 4.47 µM
NK2
  IC50: 2.82 µM
NK1
  IC50: 0.0437 µM

## CC1(C(=O)N2CCC3(CC2)CCN([C@H]2CCN(C(=O)c4cc(C(F)(F)F)cc(C(F)(F)F)c4)[C@H](Cc4ccccc4)C2)CC3)CC1 [Compound 11]
NK2
  IC50: 5.37 µM
NK1
  IC50: 0.105 µM

## NC(=O)C1(C(=O)N2CCC3(CC2)CCN([C@H]2CCN(C(=O)c4cc(C(F)(F)F)cc(C(F)(F)F)c4)[C@H](Cc4ccccc4)C2)CC3)CC1 [Compound 14]
NK2
  IC50: > 10 µM
NK1
  IC50: 0.0316 µM

## CC1CC1C(=O)N1CCC2(CC1)CCN([C@H]1CCN(C(=O)c3cc(C(F)(F)F)cc(C(F)(F)F)c3)[C@H](Cc3ccccc3)C1)CC2 (stereo partly shown) [Compound 15]
NK3
  IC50: 7.94 µM
NK2
  IC50: 3.16 µM
NK1
  IC50: 0.129 µM

## CC1(C)C(C(=O)N2CCC3(CC2)CCN([C@H]2CCN(C(=O)c4cc(C(F)(F)F)cc(C(F)(F)F)c4)[C@H](Cc4ccccc4)C2)CC3)C1(C)C [Compound 16]
NK3
  IC50: 8.51 µM
NK2
  IC50: > 10 µM
NK1
  IC50: 0.191 µM

## O=C(C1CCCC1)N1CCC2(CC1)CCN([C@@H]1CCN(C(=O)c3cc(C(F)(F)F)cc(C(F)(F)F)c3)[C@H](Cc3ccccc3)C1)CC2 [Compound 18]
NK3
  IC50: 4.68 µM
NK2
  IC50: 1.2 µM
NK1
  IC50: 0.0204 µM

## O=C(C1CCOC1)N1CCC2(CC1)CCN([C@H]1CCN(C(=O)c3cc(C(F)(F)F)cc(C(F)(F)F)c3)[C@H](Cc3ccccc3)C1)CC2 (stereo partly shown) [Compound 21]
NK3
  IC50: 2.14 µM
NK2
  IC50: 2.34 µM
NK1
  IC50: 0.0166 µM

## O=C(c1ccoc1)N1CCC2(CC1)CCN([C@H]1CCN(C(=O)c3cc(C(F)(F)F)cc(C(F)(F)F)c3)[C@H](Cc3ccccc3)C1)CC2 [Compound 24]
NK3
  IC50: 1.32 µM
NK2
  IC50: > 10 µM
NK1
  IC50: 0.112 µM

## Cc1ccoc1C(=O)N1CCC2(CC1)CCN([C@H]1CCN(C(=O)c3cc(C(F)(F)F)cc(C(F)(F)F)c3)[C@H](Cc3ccccc3)C1)CC2 [Compound 25]
NK3
  IC50: > 10 µM
NK2
  IC50: 3.98 µM
NK1
  IC50: 0.0832 µM

## Cc1occc1C(=O)N1CCC2(CC1)CCN([C@H]1CCN(C(=O)c3cc(C(F)(F)F)cc(C(F)(F)F)c3)[C@H](Cc3ccccc3)C1)CC2 [Compound 27]
NK3
  IC50: 3.31 µM
NK2
  IC50: 4.47 µM
NK1
  IC50: 0.0204 µM

## Cc1ccc(C(=O)N2CCC3(CC2)CCN([C@H]2CCN(C(=O)c4cc(C(F)(F)F)cc(C(F)(F)F)c4)[C@H](Cc4ccccc4)C2)CC3)s1 [Compound 30]
NK3
  IC50: > 10 µM
NK2
  IC50: 7.94 µM
NK1
  IC50: 0.692 µM

## Cc1ccsc1C(=O)N1CCC2(CC1)CCN([C@H]1CCN(C(=O)c3cc(C(F)(F)F)cc(C(F)(F)F)c3)[C@H](Cc3ccccc3)C1)CC2 [Compound 32]
NK3
  IC50: 6.61 µM
NK2
  IC50: 3.16 µM
NK1
  IC50: 0.0759 µM

## Cn1cccc1C(=O)N1CCC2(CC1)CCN([C@H]1CCN(C(=O)c3cc(C(F)(F)F)cc(C(F)(F)F)c3)[C@H](Cc3ccccc3)C1)CC2 [Compound 33]
NK3
  IC50: > 10 µM
NK2
  IC50: > 10 µM
NK1
  IC50: 0.2 µM

## Cn1cnc(C(=O)N2CCC3(CC2)CCN([C@H]2CCN(C(=O)c4cc(C(F)(F)F)cc(C(F)(F)F)c4)[C@H](Cc4ccccc4)C2)CC3)c1 [Compound 34]
NK3
  IC50: > 10 µM
NK2
  IC50: 6.17 µM
NK1
  IC50: 0.191 µM

## Cc1noc(C)c1C(=O)N1CCC2(CC1)CCN([C@H]1CCN(C(=O)c3cc(C(F)(F)F)cc(C(F)(F)F)c3)[C@H](Cc3ccccc3)C1)CC2 [Compound 35]
NK3
  IC50: > 10 µM
NK2
  IC50: > 10 µM
NK1
  IC50: 0.0191 µM

## Cc1nnsc1C(=O)N1CCC2(CC1)CCN([C@H]1CCN(C(=O)c3cc(C(F)(F)F)cc(C(F)(F)F)c3)[C@H](Cc3ccccc3)C1)CC2 [Compound 36]
NK3
  IC50: > 10 µM
NK2
  IC50: 4.27 µM
NK1
  IC50: 0.0282 µM

## CC1(C(=O)N2CCC3(CC2)CCN([C@H]2CCN(C(=O)c4cc(C(F)(F)F)cc(C(F)(F)F)c4)[C@H](Cc4ccccc4)C2)CC3)CCCCC1 [Compound 37]
NK3
  IC50: > 10 µM
NK2
  IC50: 8.13 µM
NK1
  IC50: 0.0955 µM

## CC1CCCCC1C(=O)N1CCC2(CC1)CCN([C@@H]1CCN(C(=O)c3cc(C(F)(F)F)cc(C(F)(F)F)c3)[C@H](Cc3ccccc3)C1)CC2 (stereo partly shown) [Compound 39]
NK3
  IC50: 5.37 µM
NK2
  IC50: 4.79 µM
NK1
  IC50: 0.0851 µM

## CC(C)(C)C1CCC(C(=O)N2CCC3(CC2)CCN([C@H]2CCN(C(=O)c4cc(C(F)(F)F)cc(C(F)(F)F)c4)[C@H](Cc4ccccc4)C2)CC3)CC1 (stereo partly shown) [Compound 40]
NK3
  IC50: > 10 µM
NK2
  IC50: > 10 µM
NK1
  IC50: 0.977 µM

## O=C(C1=CCCCC1)N1CCC2(CC1)CCN([C@H]1CCN(C(=O)c3cc(C(F)(F)F)cc(C(F)(F)F)c3)[C@H](Cc3ccccc3)C1)CC2 [Compound 41]
NK3
  IC50: > 10 µM
NK2
  IC50: 8.51 µM
NK1
  IC50: 0.148 µM

## O=C(c1ccccc1Cl)N1CCC2(CC1)CCN([C@H]1CCN(C(=O)c3cc(C(F)(F)F)cc(C(F)(F)F)c3)[C@H](Cc3ccccc3)C1)CC2 [Compound 42]
NK3
  IC50: 9.33 µM
NK2
  IC50: 8.91 µM
NK1
  IC50: 0.0617 µM

## N#Cc1ccc(C(=O)N2CCC3(CC2)CCN([C@H]2CCN(C(=O)c4cc(C(F)(F)F)cc(C(F)(F)F)c4)[C@H](Cc4ccccc4)C2)CC3)cc1 [Compound 43]
NK3
  IC50: > 10 µM
NK2
  IC50: 3.63 µM
NK1
  IC50: 0.105 µM

## O=C(c1cc(C(F)(F)F)cc(C(F)(F)F)c1)N1CC[C@H](N2CCC3(CC2)CCN(S(=O)(=O)c2cc(Cl)sc2Cl)CC3)C[C@H]1Cc1ccccc1 [Compound 97]
NK3
  IC50: ~10 µM
NK1
  IC50: 0.0871 µM

## O=C(c1cc(C(F)(F)F)cc(C(F)(F)F)c1)N1CC[C@H](N2CCC3(CC2)CCN(S(=O)(=O)c2ccccc2Cl)CC3)C[C@H]1Cc1ccccc1 [Compound 106]
NK3
  IC50: 0.525 µM
NK1
  IC50: 0.0603 µM

## O=C(c1cc(C(F)(F)F)cc(C(F)(F)F)c1)N1CC[C@H](N2CCC3(CC2)CCN(S(=O)(=O)c2cc(Cl)ccc2Cl)CC3)C[C@H]1Cc1ccccc1 [Compound 110]
NK3
  IC50: 5.13 µM
NK1
  IC50: 0.174 µM

## N#Cc1ccccc1S(=O)(=O)N1CCC2(CCN([C@H]3CCN(C(=O)c4cc(C(F)(F)F)cc(C(F)(F)F)c4)[C@H](Cc4ccccc4)C3)CC2)CC1 [Compound 118]
NK3
  IC50: 1.51 µM
NK1
  IC50: 0.0309 µM

## Cc1cc(C)cc(C(=O)N2CCC(N3CCC4(CCN(C(=O)C5CC5)CC4)CC3)CC2Cc2ccccc2)c1 (stereo not shown) [Compound 153]
NK2
  IC50: > 10 µM
NK1
  IC50: 0.145 µM

## O=C(C1CC1)N1CCC2(CC1)CCN(C1CCN(C(=O)c3cc(Cl)cc(Cl)c3)C(Cc3ccccc3)C1)CC2 (stereo not shown) [Compound 155]
NK2
  IC50: 6.46 µM
NK1
  IC50: 0.158 µM
